{"source": "patent US10487068B2", "about": "“Pyridazine derivatives as RORc modulators” (Genentech, Inc., priority 2015, dated 2019)"}
{"molecular_target": "T1, RORc ligand binding domain (Homo sapiens, UniProt P51449)", "T1 sequence (P51449 269-508 limits assumed)": "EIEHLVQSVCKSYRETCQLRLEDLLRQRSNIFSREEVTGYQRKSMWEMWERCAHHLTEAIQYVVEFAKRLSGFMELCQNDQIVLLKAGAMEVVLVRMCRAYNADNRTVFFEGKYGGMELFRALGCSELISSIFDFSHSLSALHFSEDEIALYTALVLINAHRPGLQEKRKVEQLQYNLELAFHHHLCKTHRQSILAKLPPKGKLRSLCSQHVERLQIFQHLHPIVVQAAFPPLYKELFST", "assay": "In Vitro RORc Ligand Binding Assay", "conditions": "RORc IC50, radioligand 25-[3H]hydroxycholesterol 6 nM; 0.6 ug/mL RORc receptor; 3 h at 25° C.", "units": {"IC50": "nM"}}
{"compound": "CC1(C)[C@H]2CC[C@]1(c1cccc(S(=O)(=O)NCC3(O)COC3)n1)c1nnc(-c3c(F)cccc3F)cc12", "note": "[Example 191, 6-((5R,8S)-3-(2,6-difluorophenyl)-9,9-dimethyl-5,6,7,8-tetrahydro-5,8-methanocinnolin-8-yl)-N-((3-hydroxyoxetan-3-yl)methyl)pyridine-2-sulfonamide]", "IC50": 24.6}
{"compound": "CC(C)(O)C1CN(c2nccc([C@@]34CC[C@@H](c5cc(-c6c(F)cccc6F)nnc53)C4(C)C)n2)C1", "note": "[Example 307]", "IC50": 13.5}
{"compound": "CC1(C)[C@H]2CC[C@]1(c1cncc(-c3nnn[nH]3)n1)c1nnc(-c3c(F)cccc3F)cc12", "note": "[Example 146]", "IC50": 31.9}
{"compound": "CNC(=O)c1cncc([C@@]23CC[C@@H](c4cc(-c5c(F)cccc5F)nnc42)C3(C)C)n1", "note": "[Example 27, 6-((5R,8S)-3-(2,6-difluorophenyl)-9,9-dimethyl-5,6,7,8-tetrahydro-5,8-methanocinnolin-8-yl)-N-methylpyrazine-2-carboxamide]", "IC50": 26.4}
{"compound": "CC(=O)Nc1cccc([C@@]23CC[C@@H](c4cc(-c5c(F)cccc5F)nnc42)C3(C)C)n1", "note": "[Example 101, N-(6-((5R,8S)-3-(2,6-difluorophenyl)-9,9-dimethyl-5,6,7,8-tetrahydro-5,8-methanocinnolin-8-yl)pyridin-2-yl)acetamide]", "IC50": 21.9}
{"compound": "CC1(C)[C@@H]2CC[C@@]1(c1cncc(-n3ccc(CO)n3)n1)c1nnc(-c3c(F)cccc3F)cc12", "note": "[Example 381, (1-(6-((5S,8R)-3-(2,6-difluorophenyl)-9,9-dimethyl-5,6,7,8-tetrahydro-5,8-methanocinnolin-8-yl)pyrazin-2-yl)-1H-pyrazol-3-yl)methanol]", "IC50": 6}
{"compound": "Cc1cc(-c2ccnc([C@@]34CC[C@@H](c5cc(-c6c(F)cccc6F)nnc53)C4(C)C)n2)on1", "note": "[Example 241, 5-(2-((5R,8R)-3-(2,6-difluorophenyl)-9,9-dimethyl-5,6,7,8-tetrahydro-5,8-methanocinnolin-8-yl)pyrimidin-4-yl)-3-methylisoxazole]", "IC50": 11}
{"compound": "CC1(C)[C@H]2CC[C@]1(c1cncc(C#N)n1)c1nnc(-c3c(F)cccc3F)cc12", "note": "[Example 14, 6-((5R,8S)-3-(2,6-difluorophenyl)-9,9-dimethyl-5,6,7,8-tetrahydro-5,8-methanocinnolin-8-yl)pyrazine-2-carbonitrile]", "IC50": 5.7}
{"compound": "CC1(C)[C@H]2CC[C@]1(c1cncc(N)n1)c1nnc(-c3c(F)cccc3F)cc12", "note": "[Example 33, 6-((5R,8S)-3-(2,6-difluorophenyl)-9,9-dimethyl-5,6,7,8-tetrahydro-5,8-methanocinnolin-8-yl)pyrazin-2-amine]", "IC50": 22}
{"compound": "CC1(C)[C@H]2CC[C@]1(c1nc(C(=O)NCCO)ncc1Cl)c1nnc(-c3c(F)cccc3F)cc12", "note": "[Example 230]", "IC50": 55.2}
{"compound": "CC1(C)[C@H]2CC[C@]1(c1cncc(-c3n[nH]c(=O)[nH]3)n1)c1nnc(-c3c(F)cccc3F)cc12", "note": "[Example 123, 3-(6-((5R,8S)-3-(2,6-difluorophenyl)-9,9-dimethyl-5,6,7,8-tetrahydro-5,8-methanocinnolin-8-yl)pyrazin-2-yl)-1H-1,2,4-triazol-5(4H)-one]", "IC50": 32.5}
{"compound": "CC(C)(O)CNC(=O)c1nccc([C@@]23CC[C@@H](c4cc(-c5c(F)cccc5F)nnc42)C3(C)C)n1", "note": "[Example 136]", "IC50": 37.1}
{"compound": "CC1(C)[C@H]2CC[C@]1(c1ccnc(NCc3nnc[nH]3)n1)c1nnc(-c3c(F)cccc3F)cc12", "note": "[Example 163]", "IC50": 19.2}
{"compound": "CC1(C)[C@H]2CC[C@]1(c1nc(C(=O)NCCO)ncc1Br)c1nnc(-c3c(F)cccc3F)cc12", "note": "[Example 193]", "IC50": 57.7}
{"compound": "CC1(C)[C@H]2CC[C@]1(c1ccnc(N3CC4(CCO4)C3)n1)c1nnc(-c3c(F)cccc3F)cc12", "note": "[Example 336]", "IC50": 13}
{"compound": "CC1(C)[C@H]2CC[C@]1(c1cncc(-n3cncn3)n1)c1nnc(-c3c(F)cccc3F)cc12", "note": "[Example 195]", "IC50": 6.3}
{"compound": "Cc1cc([C@@]23CC[C@@H](c4cc(-c5c(F)cccc5F)nnc42)C3(C)C)nc(C#N)n1", "note": "[Example 228]", "IC50": 15.3}
{"compound": "CC1(C)[C@H]2CC[C@]1(c1ccnc(C(=O)NCCO)n1)c1nnc(-c3c(F)cccc3Cl)cc12", "note": "[Example 161]", "IC50": 44}
{"compound": "C[C@@H](O)CNC(=O)c1cccc([C@@]23CC[C@@H](c4cc(-c5c(F)cccc5F)nnc42)C3(C)C)n1", "note": "[Example 62, 6-((5R,8S)-3-(2,6-difluorophenyl)-9,9-dimethyl-5,6,7,8-tetrahydro-5,8-methanocinnolin-8-yl)-N-((R)-2-hydroxypropyl)picolinamide]", "IC50": 28.8}
{"compound": "CC[C@H](O)c1coc(-c2cncc([C@@]34CC[C@@H](c5cc(-c6c(F)cccc6F)nnc53)C4(C)C)n2)n1", "note": "[Example 383, (S)-1-(2-(6-((5R,8S)-3-(2,6-difluorophenyl)-9,9-dimethyl-5,6,7,8-tetrahydro-5,8-methanocinnolin-8-yl)pyrazin-2-yl)oxazol-4-yl)propan-1-ol]", "IC50": 8.2}
{"compound": "CC1(C)[C@H]2CC[C@]1(c1ccnc(-c3ccn[nH]3)n1)c1nnc(-c3c(F)cccc3F)cc12", "note": "[Example 251]", "IC50": 9.8}
{"compound": "CC1(C)[C@H]2CC[C@]1(c1cncc(-c3cn[nH]n3)n1)c1nnc(-c3c(F)cccc3F)cc12", "note": "[Example 399]", "IC50": 6.4}
{"compound": "CC1(C)[C@H]2CC[C@]1(c1cncc(-n3cc(CO)cn3)n1)c1nnc(-c3c(F)cccc3F)cc12", "note": "[Example 243, (1-(6-((5R,8S)-3-(2,6-difluorophenyl)-9,9-dimethyl-5,6,7,8-tetrahydro-5,8-methanocinnolin-8-yl)pyrazin-2-yl)-1H-pyrazol-4-yl)methanol]", "IC50": 11.7}
{"compound": "Cc1ncn(-c2cncc([C@@]34CC[C@@H](c5cc(-c6c(F)cccc6F)nnc53)C4(C)C)n2)n1", "note": "[Example 255]", "IC50": 8.6}
{"compound": "CC1(C)[C@H]2CC[C@]1(c1cc(CO)ccn1)c1nnc(-c3c(F)cccc3F)cc12", "note": "[Example 79]", "IC50": 47.3}
{"compound": "CC1(C)[C@@H]2CC[C@@]1(c1cncc(C(N)=O)n1)c1nnc(-c3c(F)cccc3F)cc12", "note": "[Example 58, 6-((5S,8R)-3-(2,6-difluorophenyl)-9,9-dimethyl-5,6,7,8-tetrahydro-5,8-methanocinnolin-8-yl)pyrazine-2-carboxamide]", "IC50": 31.4}
{"compound": "CC1(C)[C@H]2CC[C@]1(c1cc(N)ncc1Cl)c1nnc(-c3c(F)cccc3F)cc12", "note": "[Example 177, 5-chloro-4-((5R,8S)-3-(2,6-difluorophenyl)-9,9-dimethyl-5,6,7,8-tetrahydro-5,8-methanocinnolin-8-yl)pyridin-2-amine]", "IC50": 24.4}
{"compound": "C[C@H](O)CNC(=O)c1cccc([C@@]23CC[C@@H](c4cc(-c5c(F)cccc5F)nnc42)C3(C)C)n1", "note": "[Example 61, 6-((5R,8S)-3-(2,6-difluorophenyl)-9,9-dimethyl-5,6,7,8-tetrahydro-5,8-methanocinnolin-8-yl)-N-((S)-2-hydroxypropyl)picolinamide]", "IC50": 34.8}
{"compound": "CC(C)(O)c1coc(-c2cncc([C@]34CC[C@H](c5cc(-c6c(F)cccc6F)nnc53)C4(C)C)n2)n1", "note": "[Example 387, 2-(2-(6-((5S,8R)-3-(2,6-difluorophenyl)-9,9-dimethyl-5,6,7,8-tetrahydro-5,8-methanocinnolin-8-yl)pyrazin-2-yl)oxazol-4-yl)propan-2-ol]", "IC50": 8}
